Assay results taken from paper PMC7083837 (Nature Communications, 2020).
Where “and” joins values, the source holds several entries; their conditions need not be identical. Identical values can stand only once.

Legend:
[1] = target: T1, SERT WT (Homo sapiens, UniProt P31645); test: [3H]S-CIT competition (equilibrium) binding on COS-7 membranes;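 note: transiently transfected cell membranes incubated 1 h at room temperature with 5–10 nM [3H]S-CIT, nonspecific binding defined using 5 µM paroxetine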
T1 construct: expressed in transfected cells; host or cells: COS-7
T1 sequence (P31645 whole entry): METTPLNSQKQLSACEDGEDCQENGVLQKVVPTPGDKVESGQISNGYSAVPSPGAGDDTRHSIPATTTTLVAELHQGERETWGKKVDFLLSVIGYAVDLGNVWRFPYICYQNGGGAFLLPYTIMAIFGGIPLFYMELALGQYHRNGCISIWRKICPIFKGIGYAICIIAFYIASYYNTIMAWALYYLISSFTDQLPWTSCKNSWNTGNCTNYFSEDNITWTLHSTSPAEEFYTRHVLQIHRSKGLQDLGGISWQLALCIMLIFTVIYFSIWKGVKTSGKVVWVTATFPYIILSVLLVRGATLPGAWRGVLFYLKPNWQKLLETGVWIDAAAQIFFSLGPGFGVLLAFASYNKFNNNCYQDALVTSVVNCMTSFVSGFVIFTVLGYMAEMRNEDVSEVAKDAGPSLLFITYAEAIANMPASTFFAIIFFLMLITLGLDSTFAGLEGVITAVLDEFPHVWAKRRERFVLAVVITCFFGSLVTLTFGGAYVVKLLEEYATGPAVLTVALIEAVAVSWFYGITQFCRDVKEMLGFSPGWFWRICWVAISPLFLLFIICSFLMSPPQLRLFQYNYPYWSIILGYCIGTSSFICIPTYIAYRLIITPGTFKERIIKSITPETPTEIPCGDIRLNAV

[2] = target: T1, SERT WT; test: [3H]IMI dissociation rate assay (allosteric potency); assay type: binding;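 note: membranes of COS-7 cells transiently expressing hSERT, dissociation of prebound radioligand tracked by filtration over seven time points (5–70 min), rate constant with test ligand expressed relative to buffer-only rate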
[3] = target: T2, SERT E494Q (Homo sapiens, UniProt P31645, E494Q); test: [3H]IMI dissociation rate assay; assay type: binding
T2 construct: expressed in transfected cells; host or cells: COS-7
T2 sequence (P31645 whole entry E494Q): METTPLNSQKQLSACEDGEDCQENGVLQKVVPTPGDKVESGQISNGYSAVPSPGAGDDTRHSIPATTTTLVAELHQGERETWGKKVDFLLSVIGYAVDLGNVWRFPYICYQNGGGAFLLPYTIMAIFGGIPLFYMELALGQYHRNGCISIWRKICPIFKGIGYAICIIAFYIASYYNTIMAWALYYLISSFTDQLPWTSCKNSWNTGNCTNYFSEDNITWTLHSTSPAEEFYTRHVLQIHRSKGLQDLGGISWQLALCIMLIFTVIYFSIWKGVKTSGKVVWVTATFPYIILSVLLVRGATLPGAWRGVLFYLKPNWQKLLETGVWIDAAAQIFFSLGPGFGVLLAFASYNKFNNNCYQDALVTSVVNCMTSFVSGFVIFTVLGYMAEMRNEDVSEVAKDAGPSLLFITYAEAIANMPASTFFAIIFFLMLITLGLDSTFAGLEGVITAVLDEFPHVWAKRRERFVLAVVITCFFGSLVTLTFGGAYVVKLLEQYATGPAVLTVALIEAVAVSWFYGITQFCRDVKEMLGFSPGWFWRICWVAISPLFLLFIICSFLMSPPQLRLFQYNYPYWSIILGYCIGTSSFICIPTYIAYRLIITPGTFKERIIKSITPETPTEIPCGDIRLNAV

[4] = target: T3, SERT F556R (Homo sapiens, UniProt P31645, F556R); test: [3H]5-HT uptake in intact COS-7 cells; assay type: cell-based; conditions: for 5-HT uptake inhibition by Lu AF60097: Fig 5A
T3 construct: expressed in transfected cells; host or cells: COS-7
T3 sequence (P31645 whole entry F556R): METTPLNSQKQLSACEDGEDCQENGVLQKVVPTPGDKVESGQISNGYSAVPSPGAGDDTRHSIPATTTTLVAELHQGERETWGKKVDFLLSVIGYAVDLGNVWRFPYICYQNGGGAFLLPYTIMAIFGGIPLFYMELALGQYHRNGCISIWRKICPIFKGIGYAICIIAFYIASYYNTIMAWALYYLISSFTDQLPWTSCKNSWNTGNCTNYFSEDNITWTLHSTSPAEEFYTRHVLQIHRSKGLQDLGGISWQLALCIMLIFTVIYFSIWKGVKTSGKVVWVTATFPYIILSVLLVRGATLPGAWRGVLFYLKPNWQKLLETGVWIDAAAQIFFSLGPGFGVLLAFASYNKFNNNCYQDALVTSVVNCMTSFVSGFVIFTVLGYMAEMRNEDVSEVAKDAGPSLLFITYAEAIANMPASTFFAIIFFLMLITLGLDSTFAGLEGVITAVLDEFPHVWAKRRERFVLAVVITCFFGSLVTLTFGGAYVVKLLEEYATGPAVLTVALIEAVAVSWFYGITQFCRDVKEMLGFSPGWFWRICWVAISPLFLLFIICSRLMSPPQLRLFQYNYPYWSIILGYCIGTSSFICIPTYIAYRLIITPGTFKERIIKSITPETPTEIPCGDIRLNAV

[5] = target: T1, SERT WT; test: [3H]S-CIT dissociation rate assay (allosteric potency); assay type: binding

NC(=O)c1ccc2c(c1)CO[C@@]2(CCCN1CCC(c2ccc3ccc(=O)[nH]c3c2)CC1)c1ccc(F)cc1 [Lu AF60097, (S)-1-(4-fluorophenyl)-1-(3-(4-(2-oxo-1,2-dihydroquinolin-7-yl)piperidin-1-yl)propyl)-1,3-dihydroisobenzofuran-5-carboxamide]
IC50 ([1]; COS-7 membranes, SERT WT, read-out: Inhibition of [^3H]S-CIT binding (IC50)): 270 nM
Displacement of [3H]S-CIT binding (normalized bound, Fig S6) ([1]; log[Lu AF60097] -4.9586): 0.02221 and 0.02599
Displacement of [3H]S-CIT binding (normalized bound, Fig S6) ([1]; log[Lu AF60097] -6.4638): 0.4362 and 0.4819 and 0.2888
Displacement of [3H]S-CIT binding (normalized bound, Fig S6) ([1]; log[Lu AF60097] -6.7648): 0.6201 and 0.6384 and 0.4362
Displacement of [3H]S-CIT binding (normalized bound, Fig S6) ([1]; log[Lu AF60097] -7.0658): 0.7487 and 0.8379 and 0.6201
Displacement of [3H]S-CIT binding (normalized bound, Fig S6) ([1]; log[Lu AF60097] -7.3668): 0.8096 and 1.0297 and 0.7487
Displacement of [3H]S-CIT binding (normalized bound, Fig S6) ([1]; log[Lu AF60097] -7.6679): 0.9347 and 1.009 and 0.8096
Displacement of [3H]S-CIT binding (normalized bound, Fig S6) ([1]; log[Lu AF60097] -7.8213): 0.9058
Displacement of [3H]S-CIT binding (normalized bound, Fig S6) ([1]; log[Lu AF60097] -8.2985): 0.9777 and 0.9058
Displacement of [3H]S-CIT binding (normalized bound, Fig S6) ([1]; log[Lu AF60097] -9): 0.999 and 0.9777
Higher allosteric potency with prebound [^3H]IMI relative to prebound [^3H]S-CIT ([2]; SERT WT): 200 fold
[^3H]IMI dissociation relative to control (source data Fig 3C) ([2]; SERT WT, log conc -5.4318): 0.0325
[^3H]IMI dissociation relative to control (source data Fig 3C) ([2]; SERT WT, log conc -7.3398): 0.5967 and 0.5153 and 0.3551 and 0.4862 and 0.4455
[^3H]IMI dissociation relative to control (source data Fig 3C) ([2]; SERT WT, log conc -7.817): 0.6907 and 0.7383 and 0.5957 and 0.7538 and 0.5364
[^3H]IMI dissociation relative to control (source data Fig 3C) ([2]; SERT WT, log conc -8.2941): 0.7767 and 0.8969 and 0.8389 and 0.8612 and 0.685
[^3H]IMI dissociation relative to control (source data Fig 3C) ([2]; SERT WT, log conc -8.7712): 0.9679 and 0.8619
IC50 ([2]; SERT WT, read-out: Allosteric potency inhibition of [^3H]IMI dissociation (IC50)): 31.4 nM and 31 nM
Gain in allosteric potency relative to any other reported S2-bound hSERT ligand ([2]; comparison with ref 22): > 100 fold
Increase in allosteric potency compared with citalopram ([2]; in the presence of S1:IMI): > 150 fold
ΔAP (mut/WT), change in allosteric potency relative to SERT WT ([3]; E494Q, [^3H]IMI dissociation): 5
IC50 ([3]; SERT E494Q, read-out: Allosteric potency inhibition of [^3H]IMI dissociation (IC50)): 170 nM
5-HT uptake inhibition by Lu AF60097 ([4]; [Lu AF60097] -5.5): 0.1354
5-HT uptake inhibition by Lu AF60097 ([4]; [Lu AF60097] -6): 0.2671
5-HT uptake inhibition by Lu AF60097 ([4]; [Lu AF60097] -6.5): 0.5785
5-HT uptake inhibition by Lu AF60097 ([4]; [Lu AF60097] -7): 0.7467
5-HT uptake inhibition by Lu AF60097 ([4]; [Lu AF60097] -7.5): 0.9156
5-HT uptake inhibition by Lu AF60097 ([4]; [Lu AF60097] -8): 0.9992
5-HT uptake inhibition by Lu AF60097 ([4]; [Lu AF60097] -9): 0.9608
5-HT uptake inhibition by Lu AF60097 ([4]; [Lu AF60097] -10): 1.013
Ki ([4]; SERT F556R): 260 nM
[^3H]S-CIT dissociation relative to control (source data Fig 3B) ([5]; log conc -4): 0.1541 and 0.1918 and 0.2298
[^3H]S-CIT dissociation relative to control (source data Fig 3B) ([5]; log conc -4.47756): 0.2646 and 0.3943 and 0.2986 and 0.219 and 0.3366
[^3H]S-CIT dissociation relative to control (source data Fig 3B) ([5]; log conc -4.95468): 0.4248 and 0.6032 and 0.3921 and 0.3044 and 0.3481
[^3H]S-CIT dissociation relative to control (source data Fig 3B) ([5]; log conc -5.4318): 0.6087 and 0.8042 and 0.6275 and 0.541 and 0.6453
[^3H]S-CIT dissociation relative to control (source data Fig 3B) ([5]; log conc -5.9101): 0.7519 and 0.9034 and 0.8094 and 0.7437 and 0.8779
[^3H]S-CIT dissociation relative to control (source data Fig 3B) ([5]; log conc -6.38561): 0.8673 and 0.9045 and 0.9664 and 0.838 and 0.8643
[^3H]S-CIT dissociation relative to control (source data Fig 3B) ([5]; log conc -6.86273): 0.9943 and 0.9294 and 0.9623
IC50 ([5]; read-out: Allosteric potency inhibition of [^3H]S-CIT dissociation (IC50)): 6500 nM
